{"source": "patent US4963570A", "about": "“1-(acetylaminophenyl)-2-aminopropanone derivatives and pharmaceutical compositions thereof” (Laboratoire L. Lafon, priority 1983, dated 1990)", "key": {"mice [1]": {"test_system": "mice", "assay": "action on the spontaneous motility (actimeter)", "assay_type": "in vivo, mouse", "experimental": "0.5 hour after they have received CRL 41 224, the mice (6 per dose, 12 control animals) are placed in an actimeter, where their motility is recorded for 30 minutes."}, "immunological properties": {"test_system": "immunological properties", "assay": "immunological properties, overall", "assay_type": "in vivo", "settings": "dose not stated; dihydrochloride", "from_the_text": "The present 1-(acetylaminophenyl)-2-aminopropanone derivatives are useful in therapy. They all act on the CNS, more precisely as antidepressants. They have a stimulant or excitant component in their neuropsychopharmacological profile."}, "CNS": {"test_system": "CNS", "assay": "overall neuropsychopharmacological (CNS) profile", "assay_type": "in vivo, mouse; rat", "settings": "i.p.", "experimental": "The neuropsychopharmacological study of CRL 41 219 was carried out as indicated above for CRL 41 224.\nThe neuropsychopharmacological study of CRL 41 220 was carried out in accordance with the procedures given above for CRL 41 224."}, "mice [2]": {"test_system": "mice", "assay": "four plate test, traction and electric shock", "assay_type": "in vivo, mouse", "settings": "i.p.", "experimental": "The test is performed on groups of 10 mice 30 minutes after the administration of CRL 41 224."}, "male mice": {"test_system": "male mice", "assay": "acute toxicity, intraperitoneal (lethal doses)", "assay_type": "in vivo, mouse", "settings": "i.p.", "experimental": "By intraperitoneal administration to male mice, the LD-30 (lethal dose for 30% of the animals tested) is of the order of 128 mg/kg and the LD-50 is of the order of about 200 mg/kg."}, "rats [3]": {"test_system": "rats", "assay": "overall behavior and reactivities in rats", "assay_type": "in vivo, rat", "settings": "i.p.", "experimental": "(§1) Groups of three animals are observed before and then 0.25 hour, 0.50 hour, 1 hour, 2 hours, 3 hours and 24 hours after the administration of CRL 41 224."}, "mice [4]": {"test_system": "mice", "assay": "asphyxiant anoxia (gallamine triiodoethylate)", "assay_type": "in vivo, mouse", "settings": "i.p., high dose", "experimental": "Groups of 10 mice receive CRL 41 224 half an hour before the intraperitoneal administration of 32 mg/kg of gallamine triiodoethylate (reference curarizing agent)."}, "mice [5]": {"test_system": "mice", "assay": "action on the behavioral despair", "assay_type": "in vivo, mouse", "settings": "i.p.", "from_the_text": "Half an hour after they have received CRL 41 224, groups of 6 mice are placed in a beaker filled with water to a height of 6 cm. The total period of immobility between the 2nd and 6th minutes following immersion is noted."}, "mice [6]": {"test_system": "mice", "assay": "action on the intergroup aggression", "assay_type": "in vivo, mouse", "settings": "i.p., high doses", "experimental": "After they have stayed for 3 weeks in the 2 halves of a cage divided by an opaque partition, groups of 3 mice receive CRL 41 224. Half an hour later, the two groups from the same cage are brought together by removal of the partition, and the number of fights which occur in 10 minutes is noted. Half the test is performed on ordinary mice (NMRI, C.E.R. January) and half on NMRI (Iffa Credo) mice."}, "[7]": {"assay": "pH of the aqueous solution as a function of concentration", "assay_type": "physicochemical", "experimental": "The neuropsychopharmacological study of CRL 41 242 was carried out according to the procedures described above for CRL 41 224, except that the pH of the aqueous solution of CRL 41 242 to be injected intraperitoneally varies as a function of the concentration in the manner indicated in Table III below."}, "mice [8]": {"test_system": "mice", "assay": "interaction with barbital", "assay_type": "in vivo, mouse", "experimental": "Half an hour after the administration of CRL 41 224, groups of 10 mice receive an intraperitoneal injection of barbital (220 mg/kg)."}, "mice [9]": {"test_system": "mice", "assay": "overall behavior and reactivities in mice", "assay_type": "in vivo, mouse", "settings": "i.p.", "experimental": "as §1"}, "mice [10]": {"test_system": "mice", "assay": "interaction with oxotremorine", "assay_type": "in vivo, mouse", "settings": "i.p.", "experimental": "CRL 41 224 is administered to groups of 6 mice 0.5 hour before the intraperitoneal injection of 0.5 mg/kg of oxotremorine."}, "[11]": {"test_system": "peripheral α-adrenergic stimulation", "assay": "signs of peripheral adrenergic stimulation", "assay_type": "in vivo, mouse; rat", "settings": "i.p.; dose not stated", "experimental": "as §1"}, "rats [12]": {"test_system": "rats", "assay": "interaction with apomorphine in rats", "assay_type": "in vivo, rat", "settings": "i.p., dose not stated", "experimental": "CRL 41 224 is administered to groups of 6 rats 0.5 hour before the subcutaneous injection of 0.5 mg/kg of apomorphine."}, "man": {"test_system": "man", "assay": "clinical trials", "assay_type": "in vivo, human", "settings": "tablets or gelatine capsules 2 mg, 2 to 3 per day"}, "mice [13]": {"test_system": "mice", "assay": "interaction with apomorphine in mice", "assay_type": "in vivo, mouse", "settings": "i.p.; dose not stated", "experimental": "Groups of 6 mice receive CRL 41 224 0.5 hour before the subcutaneous injection of 1 or 16 mg/kg of apomorphine."}, "mice [14]": {"test_system": "mice", "assay": "motility reduced by hypoxic aggression", "assay_type": "in vivo, mouse", "settings": "i.p., dose not stated", "experimental": "Half an hour after they have received CRL 41 224, the mice (10 per dose, 20 control animals) are subjected to acute hypobaric anoxia [pressure reduction of 600 mm Hg (i.e. about 8×10^4 Pa) in 90 seconds; release of vacuum in 45 seconds] and are then placed in an actimeter, where their motility is recorded for 10 minutes."}, "mice [15]": {"test_system": "mice", "assay": "toxicity to grouped mice compared with isolated mice", "assay_type": "in vivo, mouse"}, "rats [16]": {"test_system": "rats", "assay": "action on stereotypies in rats (α-methyltyrosine, haloperidol, reserpine)", "settings": "i.p."}, "rats [17]": {"test_system": "rats", "assay": "interaction with amphetamine", "assay_type": "in vivo, rat", "settings": "rats, i.p.; dose not stated", "experimental": "Amphetamine (2 mg/kg) is injected intraperitoneally into groups of 6 rats 30 minutes after the administration of CRL 41 224."}, "mice [18]": {"test_system": "mice", "assay": "motility reduced by habituation to the enclosure", "assay_type": "in vivo, mouse", "settings": "i.p., dose not stated", "experimental": "After they have stayed in the actimeters for 18 hours, the mice (6 per dose, 12 control animals) receive CRL 41 224. They are immediately returned to their respective enclosures and, half an hour later, their motility is recorded for 30 minutes."}, "mice [19]": {"test_system": "mice", "assay": "interaction with reserpine", "assay_type": "in vivo, mouse", "settings": "i.p.; dose not stated", "experimental": "Four hours after the intraperitoneal injection of 2.5 mg/kg of reserpine, groups of 6 mice receive CRL 41 224."}}, "note": "Entries after “also recorded” stand apart in the source; their conditions may differ. Where a name gives a salt, the structure may show the parent alone.", "data": [{"compound": "CC(=O)Nc1ccc(C(=O)C(C)N2CCN(C)CC2)cc1", "note": "(stereo not drawn) [CRL 41 242, 1-(4-acetylaminophenyl)-2-(4-methylpiperazino)-propanone dihydrochloride]", "values": [{"measurement": "spontaneous motility", "setting": "mice [1]; mice, i.p., high doses", "result": "a decrease in the spontaneous motility"}, {"measurement": "immunological properties, overall", "setting": "immunological properties", "result": "beneficial immunomodulating effects; also recorded: particularly valuable as an immunostimulant substance"}, {"measurement": "overall action on the CNS", "setting": "CNS; strong/high doses, dihydrochloride", "result": "sedative effects; also recorded: antidepressant effects"}, {"measurement": "effects of the stimulant type", "setting": "CNS; weak doses", "result": "very discreet effects of the stimulant type"}, {"measurement": "number of punished passes in the four plate test", "setting": "mice [2]; mice, high doses", "result": "a decrease in the spontaneous motility and the number of punished passes"}, {"measurement": "LD-0 (maximum non-lethal dose)", "setting": "male mice", "result": "greater than 256 mg/kg"}, {"measurement": "LD-60", "setting": "male mice", "result": "about 500 mg/kg"}, {"measurement": "sedation", "setting": "rats [3]; high doses", "result": "sedation in mice and rats"}, {"measurement": "time taken for asphyxiant convulsions (and death) to occur", "setting": "mice [4]", "result": "an increase in the time taken for convulsions and death to occur following asphyxiant anoxia"}, {"measurement": "period of immobility of mice forcibly immersed", "setting": "mice [5]; strong/high doses", "result": "a slight reduction in the period of immobility"}, {"measurement": "intergroup aggression", "setting": "mice [6]", "result": "a reduction in the intergroup aggression"}, {"measurement": "pH of the aqueous solution", "setting": "[7]; 0.2 g/liter", "result": 5.0}, {"measurement": "pH of the aqueous solution", "setting": "[7]; 0.4 g/liter", "result": 4.5}, {"measurement": "pH of the aqueous solution", "setting": "[7]; 0.8 g/liter", "result": 4.0}, {"measurement": "pH of the aqueous solution", "setting": "[7]; 2 g/liter", "result": 3.5}, {"measurement": "pH of the aqueous solution", "setting": "[7]; 13 g/liter", "result": 3.0}, {"measurement": "pH of the aqueous solution", "setting": "[7]; 50 g/liter", "result": 2.5}, {"measurement": "pH of the aqueous solution", "setting": "[7]; ≤0.05 g/liter", "result": 5.5}, {"measurement": "duration of the sleep induced by barbital", "setting": "mice [8]; i.p., strong/high doses", "result": "an increase in the duration of the sleep induced by barbital"}, {"measurement": "reactivities", "setting": "mice [9]; high doses", "result": "decrease in the reactivities"}, {"measurement": "body temperature (hypothermia)", "setting": "mice [9]; strong/high doses", "result": "hypothermia in mice"}, {"measurement": "sedation", "setting": "mice [9]; mice, high doses", "result": "sedation in mice"}, {"measurement": "hypothermia induced by oxotremorine", "setting": "mice [10]; strong/high doses", "result": "very moderate antagonism of the hypothermia induced by oxotremorine"}]}, {"compound": "CC(=O)Nc1ccc(C(=O)C(C)NC(C)(C)C)cc1", "note": "(stereo not drawn) [CRL 41 177]", "values": [{"measurement": "effect on spontaneous motility, gastric versus intraperitoneal", "setting": "mice [1]; male mice, gastric", "result": "greater than on intraperitoneal administration"}, {"measurement": "spontaneous motility / motor activity", "setting": "mice [1]; mice, i.p., dose not stated", "result": "an increase in the spontaneous motility in mice"}, {"measurement": "exophthalmos", "setting": "[11]", "result": "absent"}, {"measurement": "mydriasis", "setting": "[11]", "result": "mydriasis"}, {"measurement": "peripheral adrenergic stimulation, overall", "setting": "[11]", "result": "effects which may reflect peripheral adrenergic stimulation"}, {"measurement": "salivation", "setting": "[11]", "result": "absent"}, {"measurement": "stereotypies induced by apomorphine", "setting": "rats [12]", "result": "potentiation of the stereotypies induced by apomorphine"}, {"measurement": "clinical result: antidepressant", "setting": "man", "result": "excellent antidepressant drug"}, {"measurement": "hypothermia induced by apomorphine", "setting": "mice [13]", "result": "antagonism of the hypothermia induced by apomorphine"}, {"measurement": "motor recovery after hypoxic aggression", "setting": "mice [14]", "result": "an improvement in the motor recovery in mice after acute hypoxia"}, {"measurement": "overall action on the CNS", "setting": "CNS; mice and rats, dose not stated", "result": "stimulant effects; also recorded: antidepressant effects"}, {"measurement": "convulsant effects of electric shock", "setting": "mice [2]; dose not stated", "result": "potentiate the convulsant effects of electric shock"}, {"measurement": "toxicity to grouped mice compared with isolated mice", "setting": "mice [15]", "result": "do not increase the toxicity to grouped mice"}, {"measurement": "stereotype movements in rats", "setting": "rats [3]; dose not stated", "result": "stereotype movements in rats"}, {"measurement": "period of immobility or \"despair\"", "setting": "mice [5]; dose not stated", "result": "a reduction in the immobility"}, {"measurement": "suppression of induced stereotype movements by prior injection of alpha-methyltyrosine", "setting": "rats [16]", "result": "not suppressed"}, {"measurement": "stereotypies induced by amphetamine", "setting": "rats [17]", "result": "potentiation of the stereotypies induced by apomorphine or amphetamine"}, {"measurement": "sleep induced by barbital", "setting": "mice [8]; i.p., dose not stated", "result": "antagonism of the sleep induced by barbital"}, {"measurement": "interaction with barbital, gastric versus intraperitoneal", "setting": "mice [8]; male mice, gastric", "result": "greater than on intraperitoneal administration"}, {"measurement": "excitation in mice", "setting": "mice [9]; mice, dose not stated", "result": "excitation with hyperreactivity in mice"}, {"measurement": "motor activity after habituation to the enclosure", "setting": "mice [18]", "result": "a resumption in the motor activity of mice accustomed to their enclosure"}, {"measurement": "hypothermia induced by reserpine", "setting": "mice [19]", "result": "antagonism of the hypothermia induced by apomorphine, oxotremorine or reserpine"}, {"measurement": "ptosis induced by reserpine", "setting": "mice [19]", "result": "antagonism of the ptosis induced by reserpine"}, {"measurement": "hypothermia induced by oxotremorine", "setting": "mice [10]; dose not stated", "result": "antagonism of the hypothermia induced by apomorphine, oxotremorine"}, {"measurement": "trembling caused by oxotremorine", "setting": "mice [10]; dose not stated", "result": "antagonism of the trembling caused by oxotremorine"}]}]}
